In US8026365B2, “4,4-disubstituted piperidine derivatives” (Hoffman-La Roche Inc., priority 2007, dated 2011):

Molecular target: T1, human subtype 5 somatostatin receptor (SSTR5) (Homo sapiens, UniProt P35346)
T1 construct: host or cells: CHO cell line, stably transfected; membranes prepared by sonication and centrifugation
Experiment: radioligand replacement (binding) assay, 125I-labeled 11-Tyr somatostatin-14, membranes of CHO cells expressing SSTR5
Settings: membranes of CHO cells stably transfected with human SSTR5; 0.05 nM 125I tracer; Ki calculated from IC50 by Cheng-Prussoff equation
Procedure: A CHO cell line stably transfected with a plasmid encoding the human subtype 5 somatostatin receptor (GenBank accession number D16827) was obtained from Euroscreen. Cells were cultured and used for binding and functional assays.
Membranes of these cells were prepared by sonication in the presence of protease inhibitors and subsequent fractionating centrifugation. The protein concentration in the membrane preparation was determined using a commercial kit (BCA kit, Pierce, USA). Membranes were stored at −80° C. until use. After thawing membranes were diluted in assay buffer (50 mM Tris-HCl at pH 7.4, 5 mM MgCl2 and 0.20% BSA) and subjected to dounce homogenization.
For binding studies, 0.1 mL membrane suspension, corresponding to approximately 6×10^−15 mol receptor, was incubated for 1 h at room temperature with 0.05 nM ^125I-labeled tracer (11-Tyr somatostatin-14, Perkin-Elmer) and either test compounds in varying concentrations or, for the determination of non-specific binding, 0.001 mM non-labeled somatostatin-14. The incubation was stopped by filtration through GF/B glassfiber filters and washing with ice-cold wash buffer (50 mM Tris-HCl at pH 7.4). The bound radioactivity was measured after application of a scintillation cocktail (Microscint 40) and expressed as disintegrations per minute (dpm).
The receptor concentration was determined in a prior saturation experiment where a fixed, arbitrary amount of membranes was incubated with a concentration range of radio-labeled tracer. This allows estimating the total number of specific binding sites per amount of protein (i.e., Bmax), typically between 1 and 5 pmol/mg.
The concentration of the test compound required to result in half maximal inhibition of binding of the radio-labeled tracer (IC50) was estimated from a concentration-versus-dpm graph. The binding affinity (Ki) was calculated from the IC50 by applying the Cheng-Prussoff equation for single binding sites.

T1 sequence (P35346 whole entry): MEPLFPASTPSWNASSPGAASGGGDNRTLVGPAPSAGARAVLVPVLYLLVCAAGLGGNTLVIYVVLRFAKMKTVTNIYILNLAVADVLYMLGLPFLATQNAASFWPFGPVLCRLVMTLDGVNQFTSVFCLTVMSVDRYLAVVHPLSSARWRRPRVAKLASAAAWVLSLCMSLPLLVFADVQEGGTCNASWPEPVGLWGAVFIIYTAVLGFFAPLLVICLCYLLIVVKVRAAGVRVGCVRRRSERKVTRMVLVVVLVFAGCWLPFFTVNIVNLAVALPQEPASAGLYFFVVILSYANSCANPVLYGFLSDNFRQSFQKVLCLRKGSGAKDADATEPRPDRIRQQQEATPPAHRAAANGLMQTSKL

Row | Ki [µM] | Structure (SMILES)
1 | 0.051 | CCOc1cc(CN2CCC3(CC2)NC(=O)NC3=O)ccc1Cl [Example 2, 8-(4-chloro-3-ethoxy-benzyl)-1,3,8-triaza-spiro[4.5]decane-2,4-dione]
2 | 0.042 | CCOc1cc(CN2CCC3(CC2)NC(=O)NC3=O)cc(OCC)c1Cl [Example 5, 8-(4-chloro-3,5-diethoxy-benzyl)-1,3,8-triaza-spiro[4.5]decane-2,4-dione]
3 | 0.015 | CCOc1cc(CN2CCC3(CC2)NC(=O)NC3=O)cc(OCC)c1-n1cccc1 [Example 7, 8-(3,5-diethoxy-4-pyrrol-1-yl-benzyl)-1,3,8-triaza-spiro[4.5]decane-2,4-dione]
4 | 0.228 | CCOc1cc(CN2CCC3(CC2)CCN(c2ccccc2)C3=O)cc(OCC)c1Cl [Example 11, 8-(4-chloro-3,5-diethoxy-benzyl)-2-phenyl-2,8-diaza-spiro[4.5]decan-1-one]
5 | 0.037 | CCOc1cc(CN2CCC3(CC2)N=C(c2ccccc2)NC3=O)ccc1C [Example 15, 8-(3-ethoxy-4-methyl-benzyl)-2-phenyl-1,3,8-triaza-spiro[4.5]dec-1-en-4-one]
6 | 0.05 | CCOc1cc(CN2CCC3(CC2)N=C(c2ccccc2)NC3=O)ccc1Cl [Example 17, 8-(4-chloro-3-ethoxy-benzyl)-2-phenyl-1,3,8-triaza-spiro[4.5]dec-1-en-4-one]
7 | 0.226 | CCOc1cc(CN2CCC3(CC2)N=C(c2ccccc2)NC3=O)ccc1OC(F)F [Example 26, 8-(4-difluoromethoxy-3-ethoxy-benzyl)-2-phenyl-1,3,8-triaza-spiro[4.5]dec-1-en-4-one]
8 | 0.717 | COc1ccc(CN2CCC3(CC2)N=C(c2ccccc2)NC3=O)cc1OCCF [Example 29, 8-[3-(2-fluoro-ethoxy)-4-methoxy-benzyl]-2-phenyl-1,3,8-triaza-spiro[4.5]dec-1-en-4-one]
9 | 0.273 | COc1ccc(CN2CCC3(CC2)N=C(c2ccccc2)NC3=O)cc1OC1CCCC1 [Example 33, 8-(3-cyclopentyloxy-4-methoxy-benzyl)-2-phenyl-1,3,8-triaza-spiro[4.5]dec-1-en-4-one]
10 | 0.018 | CCOc1cc(CN2CCC3(CC2)N=C(c2ccccc2)NC3=O)cc(OCC)c1Br [Example 38, 8-(4-bromo-3,5-diethoxy-benzyl)-2-phenyl-1,3,8-triaza-spiro[4.5]dec-1-en-4-one]
11 | 0.096 | CCOc1cc(CN2CCC(NC(=O)c3ccc(Cl)cc3)(C(N)=O)CC2)cc(OCC)c1Cl [Example 42, 4-(4-chloro-benzoylamino)-1-(4-chloro-3,5-diethoxy-benzyl)-piperidine-4-carboxylic acid amide]
12 | 0.342 | CCOc1cc(CN2CCC(C#N)(NC(=O)c3cncc(C)c3)CC2)cc(OCC)c1F [Example 44, N-[4-cyano-1-(3,5-diethoxy-4-fluoro-benzyl)-piperidin-4-yl]-5-methyl-nicotinamide]
13 | 0.066 | CCOc1cc(CN2CCC(C#N)(NC(=O)c3ccc(Cl)nc3)CC2)cc(OCC)c1-c1ccc(F)cc1 [Example 46, 6-chloro-N-[4-cyano-1-(2,6-diethoxy-4′-fluoro-biphenyl-4-ylmethyl)-piperidin-4-yl]-nicotinamide]
